Reference: PMC12136037, “Type II kinase inhibitors that target Parkinson’s disease–associated LRRK2” (Science Advances, 2025)
Where two headings read alike, the source gives them in different places.

Legend:
Experiment in all cases: DSF 100 kinase selectivity screen;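 as to dTm: compound tested at 20 µM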
Assay type in all cases: binding
[1] = molecular target: T1, ~100 representative kinases (Homo sapiens, UniProt O15075); details: Protein DCAMKL1; average of three replicates
T1 construct: Recombinant protein kinase domains with a concentration of 2 μM
Procedure: (§1) Recombinant protein kinase domains with a concentration of 2 μM were mixed with a 20 μM compound solution in dimethyl sulfoxide (DMSO), 20 mM Hepes (pH 7.5), and 500 mM NaCl. SYPRO Orange (5000×, Invitrogen) was added as a fluorescence probe (1μl/ml). Subsequently, temperature-dependent protein unfolding profiles were measured using the QuantStudio 5 realtime PCR machine (Thermo Fisher Scientific, Waltham, MA, USA). […] The temperature was raised with a step rate of 3°C/min. […] Differences in melting temperature are given as ΔTm values in degrees Celsius. […]

[2] = molecular target: T2, ~100 representative kinases (Homo sapiens, UniProt P49759); details: Protein CLK1; average of three replicates
T2 construct: Recombinant protein kinase domains with a concentration of 2 μM
Procedure: as §1

[3] = molecular target: T3, ~100 representative kinases (Homo sapiens, UniProt P07332); details: protein FESA; average of three replicates
T3 construct: Recombinant protein kinase domains with a concentration of 2 μM
Procedure: as §1

[4] = tested on: ~100 representative kinases; details: for dTm: Protein BRD, average of three replicates
Procedure: as §1

[5] = molecular target: T4, ~100 representative kinases (Homo sapiens, UniProt Q5VT25); details: Protein CDC42BPA; average of three replicates
T4 construct: Recombinant protein kinase domains with a concentration of 2 μM
Procedure: as §1

[6] = molecular target: T5, ~100 representative kinases (Homo sapiens, UniProt O94804); details: Protein STK10; DSF; average of three replicates
T5 construct: Recombinant protein kinase domains with a concentration of 2 μM
Procedure: as §1

[7] = molecular target: T6, ~100 representative kinases (Homo sapiens, UniProt P19784); details: Protein CK2A2; average of three replicates
T6 construct: Recombinant protein kinase domains with a concentration of 2 μM
Procedure: as §1

[8] = molecular target: T7, ~100 representative kinases (Homo sapiens, UniProt P48730); details: Protein CSNK1D; average of three replicates
T7 construct: Recombinant protein kinase domains with a concentration of 2 μM
Procedure: as §1

[9] = molecular target: T8, ~100 representative kinases (Homo sapiens, UniProt P11362); details: protein FGFR1; average of three replicates
T8 construct: Recombinant protein kinase domains with a concentration of 2 μM
Procedure: as §1

[10] = molecular target: T9, ~100 representative kinases (Homo sapiens, UniProt Q96PY6); details: protein NEK1; average of three replicates
T9 construct: Recombinant protein kinase domains with a concentration of 2 μM
T9 sequence (Q96PY6 1-1258): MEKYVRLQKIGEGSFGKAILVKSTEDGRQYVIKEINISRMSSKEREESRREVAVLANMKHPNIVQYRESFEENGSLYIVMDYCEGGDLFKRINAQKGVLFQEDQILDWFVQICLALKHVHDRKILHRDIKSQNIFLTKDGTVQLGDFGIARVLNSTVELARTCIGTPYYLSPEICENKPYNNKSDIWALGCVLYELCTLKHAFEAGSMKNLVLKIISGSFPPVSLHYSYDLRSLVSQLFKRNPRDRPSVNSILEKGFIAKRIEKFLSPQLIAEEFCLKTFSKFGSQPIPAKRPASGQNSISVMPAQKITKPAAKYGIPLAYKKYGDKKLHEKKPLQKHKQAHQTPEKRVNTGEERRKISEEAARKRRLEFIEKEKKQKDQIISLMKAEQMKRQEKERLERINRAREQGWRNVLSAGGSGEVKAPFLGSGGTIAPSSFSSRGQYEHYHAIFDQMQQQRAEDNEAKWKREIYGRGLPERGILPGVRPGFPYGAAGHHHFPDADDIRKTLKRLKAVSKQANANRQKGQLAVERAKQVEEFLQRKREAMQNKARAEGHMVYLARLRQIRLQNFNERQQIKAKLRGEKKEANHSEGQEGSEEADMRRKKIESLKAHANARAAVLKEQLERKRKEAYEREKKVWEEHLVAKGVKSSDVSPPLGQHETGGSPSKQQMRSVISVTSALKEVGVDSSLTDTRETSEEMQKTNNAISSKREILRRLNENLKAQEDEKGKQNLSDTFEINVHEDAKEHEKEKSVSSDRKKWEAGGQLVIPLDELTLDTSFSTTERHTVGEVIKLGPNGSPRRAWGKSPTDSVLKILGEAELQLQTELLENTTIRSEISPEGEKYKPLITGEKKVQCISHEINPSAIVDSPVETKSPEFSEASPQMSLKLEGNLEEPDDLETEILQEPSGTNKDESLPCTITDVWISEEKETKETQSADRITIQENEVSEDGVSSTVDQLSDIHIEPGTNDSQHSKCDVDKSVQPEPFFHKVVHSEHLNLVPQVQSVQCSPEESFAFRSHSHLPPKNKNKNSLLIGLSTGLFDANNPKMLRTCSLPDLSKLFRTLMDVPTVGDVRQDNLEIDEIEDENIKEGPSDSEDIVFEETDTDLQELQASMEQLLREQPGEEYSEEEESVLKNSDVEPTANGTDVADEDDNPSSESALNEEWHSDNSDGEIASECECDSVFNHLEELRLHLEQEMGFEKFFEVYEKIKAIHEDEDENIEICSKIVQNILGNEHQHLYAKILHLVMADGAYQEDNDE
Procedure: as §1

[11] = molecular target: T10, ~100 representative kinases (Homo sapiens, UniProt Q9UEE5); details: Protein STK17A; DSF; average of three replicates
T10 construct: Recombinant protein kinase domains with a concentration of 2 μM
T10 sequence (Q9UEE5 1-414): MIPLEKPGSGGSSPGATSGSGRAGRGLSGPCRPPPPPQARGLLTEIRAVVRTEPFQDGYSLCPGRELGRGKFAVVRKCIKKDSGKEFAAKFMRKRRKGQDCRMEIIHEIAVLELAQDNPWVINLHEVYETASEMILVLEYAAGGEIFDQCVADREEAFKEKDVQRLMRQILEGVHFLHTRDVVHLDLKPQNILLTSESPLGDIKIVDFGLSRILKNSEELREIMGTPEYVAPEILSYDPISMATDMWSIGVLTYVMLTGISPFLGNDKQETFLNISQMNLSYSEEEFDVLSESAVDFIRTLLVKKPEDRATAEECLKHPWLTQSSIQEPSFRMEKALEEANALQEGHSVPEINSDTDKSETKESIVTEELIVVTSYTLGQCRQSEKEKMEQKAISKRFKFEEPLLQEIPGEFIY
Procedure: as §1

[12] = molecular target: T11, ~100 representative kinases (Homo sapiens, UniProt Q9H2G2)
T11 construct: Recombinant protein kinase domains with a concentration of 2 μM
Procedure: as §1

[13] = number of kinases with thermal shift >5 K divided by total number of kinases screened
[14] = number of proteins of the DSF panel with dTm >5K
[15] = selectivity score: # >5K divided by # of proteins tested in the DSF panel
[16] = Protein SLK, DSF, average of three replicates

T8 sequence (P11362 22-822): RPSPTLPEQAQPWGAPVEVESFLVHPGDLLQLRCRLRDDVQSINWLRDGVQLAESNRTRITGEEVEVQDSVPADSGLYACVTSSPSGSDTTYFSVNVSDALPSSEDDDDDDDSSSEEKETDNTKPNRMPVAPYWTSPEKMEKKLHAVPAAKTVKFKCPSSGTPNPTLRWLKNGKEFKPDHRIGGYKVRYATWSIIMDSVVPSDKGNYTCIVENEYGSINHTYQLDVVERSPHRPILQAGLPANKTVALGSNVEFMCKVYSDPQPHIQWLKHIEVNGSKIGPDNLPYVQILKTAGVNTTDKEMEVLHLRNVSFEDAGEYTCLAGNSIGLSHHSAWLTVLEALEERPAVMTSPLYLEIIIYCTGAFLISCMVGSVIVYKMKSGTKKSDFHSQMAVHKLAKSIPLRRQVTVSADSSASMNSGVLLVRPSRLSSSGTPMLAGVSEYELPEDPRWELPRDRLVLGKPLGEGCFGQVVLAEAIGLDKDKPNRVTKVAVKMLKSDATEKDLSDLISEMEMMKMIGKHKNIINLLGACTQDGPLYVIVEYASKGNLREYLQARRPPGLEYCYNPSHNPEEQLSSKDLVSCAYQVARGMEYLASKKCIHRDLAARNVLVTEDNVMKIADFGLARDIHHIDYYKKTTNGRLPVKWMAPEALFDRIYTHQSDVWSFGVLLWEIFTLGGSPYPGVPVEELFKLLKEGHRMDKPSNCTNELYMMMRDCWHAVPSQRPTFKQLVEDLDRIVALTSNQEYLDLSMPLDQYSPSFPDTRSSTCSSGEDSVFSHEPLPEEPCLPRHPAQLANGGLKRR
T3 sequence (P07332 whole entry, the tested form may be a part): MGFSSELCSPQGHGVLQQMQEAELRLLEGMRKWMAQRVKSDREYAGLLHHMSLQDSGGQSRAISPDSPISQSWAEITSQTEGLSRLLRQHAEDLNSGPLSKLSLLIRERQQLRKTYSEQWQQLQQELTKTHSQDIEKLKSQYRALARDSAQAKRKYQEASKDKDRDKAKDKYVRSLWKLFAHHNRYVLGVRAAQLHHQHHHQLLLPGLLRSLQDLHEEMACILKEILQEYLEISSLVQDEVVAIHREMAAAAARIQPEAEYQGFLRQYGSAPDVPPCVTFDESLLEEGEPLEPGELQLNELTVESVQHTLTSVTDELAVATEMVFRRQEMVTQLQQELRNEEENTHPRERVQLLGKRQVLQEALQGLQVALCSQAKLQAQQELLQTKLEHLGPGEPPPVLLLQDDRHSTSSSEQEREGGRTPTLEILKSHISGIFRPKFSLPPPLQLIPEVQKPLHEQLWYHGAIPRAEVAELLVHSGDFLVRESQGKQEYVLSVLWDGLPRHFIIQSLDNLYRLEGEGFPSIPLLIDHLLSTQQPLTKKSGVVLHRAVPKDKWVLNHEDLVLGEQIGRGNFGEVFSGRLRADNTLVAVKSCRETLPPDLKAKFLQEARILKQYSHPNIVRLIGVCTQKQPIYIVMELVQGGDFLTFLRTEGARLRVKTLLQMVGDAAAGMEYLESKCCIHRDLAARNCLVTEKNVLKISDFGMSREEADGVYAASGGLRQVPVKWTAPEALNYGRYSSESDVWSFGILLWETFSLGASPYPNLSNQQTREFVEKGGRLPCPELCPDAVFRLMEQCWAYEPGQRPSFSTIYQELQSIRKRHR
T4 sequence (Q5VT25 whole entry, the tested form may be a part): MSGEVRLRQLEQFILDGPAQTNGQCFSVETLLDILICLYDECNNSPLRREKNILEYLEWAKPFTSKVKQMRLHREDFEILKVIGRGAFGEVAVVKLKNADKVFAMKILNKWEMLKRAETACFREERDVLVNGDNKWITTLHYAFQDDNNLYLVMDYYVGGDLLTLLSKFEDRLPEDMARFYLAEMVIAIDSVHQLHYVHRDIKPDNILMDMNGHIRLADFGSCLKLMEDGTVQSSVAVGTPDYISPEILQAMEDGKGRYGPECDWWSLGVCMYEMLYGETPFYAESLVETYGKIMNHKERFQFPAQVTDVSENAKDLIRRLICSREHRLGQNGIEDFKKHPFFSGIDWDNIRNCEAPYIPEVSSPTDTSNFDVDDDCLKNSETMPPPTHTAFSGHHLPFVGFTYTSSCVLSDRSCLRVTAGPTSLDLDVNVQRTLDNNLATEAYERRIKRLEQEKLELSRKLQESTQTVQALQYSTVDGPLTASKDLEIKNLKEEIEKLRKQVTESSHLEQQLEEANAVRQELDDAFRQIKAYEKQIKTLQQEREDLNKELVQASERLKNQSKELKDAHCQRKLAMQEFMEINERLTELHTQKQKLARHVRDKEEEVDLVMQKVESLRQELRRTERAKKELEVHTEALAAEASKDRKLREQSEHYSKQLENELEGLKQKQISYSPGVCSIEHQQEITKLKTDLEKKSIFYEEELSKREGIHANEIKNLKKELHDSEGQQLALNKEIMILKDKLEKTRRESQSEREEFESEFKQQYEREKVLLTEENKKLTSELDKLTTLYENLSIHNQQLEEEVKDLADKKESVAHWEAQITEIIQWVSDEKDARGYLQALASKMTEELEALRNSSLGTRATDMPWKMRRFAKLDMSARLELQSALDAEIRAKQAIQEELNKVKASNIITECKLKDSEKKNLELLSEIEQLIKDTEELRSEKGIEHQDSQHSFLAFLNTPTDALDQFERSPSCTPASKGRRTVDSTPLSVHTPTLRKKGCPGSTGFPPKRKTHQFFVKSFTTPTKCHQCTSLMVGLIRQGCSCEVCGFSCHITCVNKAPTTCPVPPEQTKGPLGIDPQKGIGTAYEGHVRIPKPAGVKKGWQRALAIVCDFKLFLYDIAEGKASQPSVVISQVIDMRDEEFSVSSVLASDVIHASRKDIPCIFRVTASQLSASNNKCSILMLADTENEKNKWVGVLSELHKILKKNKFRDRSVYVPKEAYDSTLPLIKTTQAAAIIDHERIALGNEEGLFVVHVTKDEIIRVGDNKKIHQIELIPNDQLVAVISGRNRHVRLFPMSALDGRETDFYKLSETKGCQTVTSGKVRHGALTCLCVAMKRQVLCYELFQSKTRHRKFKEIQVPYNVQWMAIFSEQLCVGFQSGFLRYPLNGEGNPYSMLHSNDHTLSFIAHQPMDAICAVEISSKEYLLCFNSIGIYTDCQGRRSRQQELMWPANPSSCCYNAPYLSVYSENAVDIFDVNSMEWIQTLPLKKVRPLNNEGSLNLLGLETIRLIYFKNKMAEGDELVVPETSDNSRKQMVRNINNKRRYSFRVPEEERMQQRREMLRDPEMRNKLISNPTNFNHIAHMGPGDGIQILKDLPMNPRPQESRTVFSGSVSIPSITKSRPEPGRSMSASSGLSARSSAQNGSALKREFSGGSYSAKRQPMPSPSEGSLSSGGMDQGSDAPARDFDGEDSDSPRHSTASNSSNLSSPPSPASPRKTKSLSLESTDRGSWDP
T6 sequence (P19784 whole entry, the tested form may be a part): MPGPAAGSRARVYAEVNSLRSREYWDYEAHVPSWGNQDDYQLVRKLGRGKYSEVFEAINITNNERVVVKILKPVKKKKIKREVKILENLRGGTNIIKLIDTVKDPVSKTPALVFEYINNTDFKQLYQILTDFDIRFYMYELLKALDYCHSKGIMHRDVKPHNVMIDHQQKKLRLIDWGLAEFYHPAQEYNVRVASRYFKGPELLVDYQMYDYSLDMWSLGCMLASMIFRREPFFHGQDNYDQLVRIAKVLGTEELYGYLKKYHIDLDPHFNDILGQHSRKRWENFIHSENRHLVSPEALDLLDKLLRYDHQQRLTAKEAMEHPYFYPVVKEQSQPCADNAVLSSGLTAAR
T1 sequence (O15075 whole entry, the tested form may be a part): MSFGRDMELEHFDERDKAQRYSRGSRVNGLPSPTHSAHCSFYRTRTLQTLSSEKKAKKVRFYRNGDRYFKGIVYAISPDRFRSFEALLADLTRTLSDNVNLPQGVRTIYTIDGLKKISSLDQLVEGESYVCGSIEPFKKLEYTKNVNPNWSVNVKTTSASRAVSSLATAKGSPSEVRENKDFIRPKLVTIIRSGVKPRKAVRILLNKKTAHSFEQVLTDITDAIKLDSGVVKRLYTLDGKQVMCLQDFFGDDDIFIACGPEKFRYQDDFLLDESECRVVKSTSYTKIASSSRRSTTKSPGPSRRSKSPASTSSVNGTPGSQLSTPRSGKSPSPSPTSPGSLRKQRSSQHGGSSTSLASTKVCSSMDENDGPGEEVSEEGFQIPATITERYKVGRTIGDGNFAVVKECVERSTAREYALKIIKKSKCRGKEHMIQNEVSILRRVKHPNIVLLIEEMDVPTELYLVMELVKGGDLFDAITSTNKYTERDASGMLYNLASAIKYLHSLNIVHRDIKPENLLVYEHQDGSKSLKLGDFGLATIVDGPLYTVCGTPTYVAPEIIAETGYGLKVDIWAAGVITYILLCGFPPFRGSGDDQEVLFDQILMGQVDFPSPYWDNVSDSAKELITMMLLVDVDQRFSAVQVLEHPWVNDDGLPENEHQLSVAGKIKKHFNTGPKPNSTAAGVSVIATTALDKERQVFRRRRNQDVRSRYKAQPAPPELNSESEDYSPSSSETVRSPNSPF
T7 sequence (P48730 whole entry, the tested form may be a part): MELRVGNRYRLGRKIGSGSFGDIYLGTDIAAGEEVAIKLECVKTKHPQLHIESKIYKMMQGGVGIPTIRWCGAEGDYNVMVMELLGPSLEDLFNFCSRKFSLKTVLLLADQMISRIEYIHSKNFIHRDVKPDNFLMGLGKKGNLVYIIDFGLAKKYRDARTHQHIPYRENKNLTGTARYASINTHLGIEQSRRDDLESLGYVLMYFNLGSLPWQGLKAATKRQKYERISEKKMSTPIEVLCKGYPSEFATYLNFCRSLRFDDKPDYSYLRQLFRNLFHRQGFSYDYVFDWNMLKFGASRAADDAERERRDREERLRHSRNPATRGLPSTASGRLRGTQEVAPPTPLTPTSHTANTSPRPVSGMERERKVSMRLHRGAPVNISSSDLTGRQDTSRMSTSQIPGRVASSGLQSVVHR

SMILES | dTm [1] [K] | dTm [2] [K] | dTm [3] [K] | dTm [4] [K] | S(5K) [4, 13] | # >5K [4, 14] | S(5K) [4, 15] | dTm [5] [K] | dTm [6] [K] | dTm [7] [K] | dTm [8] [K] | dTm [9] [K] | dTm [10] [K] | dTm [11] [K] | dTm [12, 16] [K] | dTm [12] [K] | # >5K [4] | S(5K) [4]
Cc1ccc(C(=O)Nc2ccc(CN3CCN(C)CC3)c(C(F)(F)F)c2)cc1C#Cc1c[nH]c2ncnc(N3CCOCC3)c12 [Compound 1] | -0.0556 | 8.76 | 3.82 | 0.03 | 0.20 | 21 | 0.200 | -1.51 | 14.26 | -0.08 | 0.0454 | 2.59 | -0.11 | 2.74 |  |  |  | 
O=C(Nc1ccc(F)cc1)C1(C(=O)Nc2cccc(-c3c[nH]c4ncnc(N5CCOCC5)c34)c2)CC1 [Compound 2] | 1.25 | 9.06 | 7.20 | -1.00 | 0.28 | 28 | 0.280 | -0.78 | 12.98 | 6.40 | 2.09 | 1.19 | -0.21 | 0.36 | 6.64 |  |  | 
O=C(Nc1cccc(-c2c[nH]c3ncnc(N4CCOCC4)c23)c1)c1cccn(-c2ccc(F)cc2)c1=O [Compound 4] | 0.57 | 9.53 | 6.45 | -1.99 | 0.33 | 33 | 0.330 | -0.81 | 11.47 | -5.10 | 5.34 | 3.37 | -0.47 | -0.07 | 6.46 |  |  | 
Cc1cc(NC(=O)C2(C(=O)Nc3ccc(F)cc3)CC2)cc(-c2c[nH]c3ncnc(N4CCOCC4)c23)c1 [Compound 6] | 3.01 | 4.67 | 4.17 | 0.73 | 0.13 | 13 | 0.125 | -0.90 | 11.03 | 2.54 | 1.10 | 0.32 | -0.00237 | 0.40 | 4.64 |  |  | 
O=C(Nc1cccc(-c2c[nH]c3ncnc(N4CCOCC4)c23)c1)C1(C(=O)Nc2cccc3c2CCC3)CC1 [Compound 11] | 2.70 | 7.29 | 4.12 | 1.00 | 0.15 | 16 | 0.154 | -1.26 | 10.54 | 1.05 | 1.21 | 0.52 | -2.39 | 1.27 | 0.75 |  |  | 
O=C(Nc1ccccc1)C1(C(=O)Nc2cccc(-c3c[nH]c4ncnc(N5CCOCC5)c34)c2)CC1 [Compound 12] | 0.95 | 9.52 | 6.39 | -0.35 | 0.26 | 26 | 0.260 | -0.16 | 11.85 | 7.05 | 1.61 | 1.41 | 0.33 | 0.26 | 5.53 |  |  | 
O=C(Nc1ccc(Cl)cc1)C1(C(=O)Nc2cccc(-c3c[nH]c4ncnc(N5CCOCC5)c34)c2)CC1 [Compound 13] | 2.89 | 9.39 | 8.66 | 1.19 | 0.37 | 37 | 0.370 | -0.08 | 14.64 | 9.70 | 2.99 | 1.36 | 0.54 | 1.64 | 7.45 |  |  | 
Cc1ccc(C(=O)Nc2ccc(CN3CCN(C)CC3)c(C(F)(F)F)c2)cc1C#Cc1cnc2[nH]ncc2c1 [GZD-824, reference compound] | 0.30 | 7.80 |  | -0.37 |  |  |  | -1.37 |  | 1.79 | 1.29 | 12.20 | 1.45 | 0.16 |  | 15.82 | 31 | 0.313
Cc1ccc(C(=O)Nc2ccc(CN3CCN(C)CC3)c(C(F)(F)F)c2)cc1C#Cc1cnc2cccnn12 [Ponatinib, reference compound] |  |  |  |  |  |  |  | -1.37 |  |  |  | 11.47 | 0.42 |  |  |  | 28 | 0.272
CNC(=O)c1cc(Oc2ccc(NC(=O)Nc3cc(C(C)(C)C)nn3-c3ccc4ncccc4c3)c(F)c2)ccn1 [Rebastinib, reference compound] | 3.67 | 15.99 | 7.16 |  |  |  |  | 0.18 | 16.27 | 1.06 | -1.01 | 5.75 | 2.10 | 3.53 | 14.21 |  |  | 
CN[C@@H]1C[C@H]2O[C@@](C)([C@@H]1OC)n1c3ccccc3c3c4c(c5c6ccccc6n2c5c31)C(=O)NC4 [Staurosporine] | 12.74 |  |  |  |  |  |  | 3.20 | 22.21 |  | 2.05 |  |  |  |  |  |  | 
